Several values for one entry are separate records, joined by “and”; a condition that tells them apart may be missing. Equal entries are not always repeated. Where two headings read alike, the source gives them in different places.
Experiments:
[1] = Population pharmacokinetic (popPK) model of plasma concentrations in adult patients (OpTAT study)
Text: Data were collected during the OpTAT study. […] Blood samples were collected from patients during their regular medical visits, with a maximum of eight samples taken per patient.
The digital monitor allowed us to provide accurate information on treatment implementation (i.e., the extent to which the patient’s dosing history is in line with the prescription—the correct dosing regimen, at the correct time and in the right condition) and temporary or long-term discontinuation of treatment (i.e., when the patient stops taking the treatment prematurely). For the remaining patients, dosing history was reconstructed based on information from the medical consultation notes, assuming steady-state condition if no information was available. Patient demographic and clinical data were extracted from medical records. For all clinical and laboratory data (e.g., body weight, hepatic or renal function), the closest measurement to the blood sample was used. If no measurement was taken within 10 days before or after the sample, then it was considered a missing value. Creatinine clearance (CrCL) was estimated using the Cockcroft–Gault formula [43]. Fat-free mass (FFM) was calculated using the following formula [44]:(1) FFMkg=BW×1−BFPbmi/100 with BW denoting bodyweight in kg and BFPbmi denoting body fat percentage, calculated using the following formula:(2) BFPbmi%=1.20×BMI+0.23×AGE−10.8×SEX−5.4 with BMI representing body mass index, in kg/m^2. SEX = 0 if women and 1 if men and AGE is provided in years.
The development of the population pharmacokinetic (popPK) model was performed using nonlinear mixed-effect modelling (Nonmem, ICON, Dublin, Ireland, version 7.4.3) and Pearl speaks Nonmem (PsN, version 4.8.0). Pirana (Certara, Radnor, PA, USA, version 2.9.6) was used for the management of runs, R (version 4.0.2), for graphical and statistical analyses.
A classical stepwise procedure was used to build the model. […] Inter-individual variability (IIV) was successively incorporated into each PK parameter. Different error models, including additive, proportional, and combined error models, were also assessed. Different values retrieved from the literature of absorption rate constants (ka), ranging from 0.4 to 2 h^−1, were evaluated due to insufficient data being collected during the absorption phase. For each patient, the time required to reach maximum concentration (Tmax) was estimated.
Biologically relevant covariates were introduced into the model through a forward/backward insertion/deletion method. Covariates tested were sex, body weight, body mass index (BMI), body surface area (BSA), age, FFM, CrCL, urea, total bilirubin, alkaline phosphatase (PAL), aspartate aminotransferase (ASAT), alanine aminotransferase (ALAT), concomitant administration of dabrafenib, and food intake. Initially, a univariate analysis was conducted, during which covariates were added one by one to the model. Continuous covariates were centred and normalized to the population median and were added to the model using either linear or allometric relationships, while categorical covariates followed a linear relationship. Missing values were assigned the population median. Subsequently, a multivariate analysis was performed of the identified significant covariates to develop the comprehensive model. Finally, a reductive analysis was performed to retain only the most significant covariates.
The assumption of steady state for patients without adherence information may have biased the analysis by interpreting low levels as high clearances resulting from missed doses rather than from a covariate effect. To verify this, a sensitivity analysis was conducted of the 11 patients with full adherence information. We assumed that if the significant covariate–parameter relationship persisted, its influence on the pharmacokinetic parameter would be confirmed, whereas, if not, this influence might have been confounded by other factors, including suboptimal adherence.

[2] = parameters: method as in PMID 32283865; settings: fixed to a literature value; cited from earlier work
[3] = cited from earlier work
[4] = Figure 1; cited from earlier work
[5] = cited from earlier work; remark: listed apart in the source
[6] = test system: cytochrome P (CYP) enzymes; parameters: method as in earlier work; settings: cited from earlier work
[7] = cited from earlier work; remark: listed apart in the source
[8] = bootstrap performed on 2000 runs

## CC(=O)Nc1cccc(-n2c(=O)n(C3CC3)c(=O)c3c(Nc4ccc(I)cc4F)n(C)c(=O)c(C)c32)c1 [trametinib]
[1]; 80-year-old versus 30-year-old patient
  decrease in CL: 40%
[1]; FFM of 68 kg compared with population median of 46.35 kg
  increase in CL: 66%
[1]; base two-compartment model
  IIV (CV%) on CL, base model: 45%
  central volume (V2), base model: 102 L
  intercompartmental clearance (Q), base model: 35.1 L/h
  peripheral volume (V3), base model: 338 L
[1]; [8]
  IIVCL, Bootstrap Median (95% PI): 22 (13, 28) %
  Q, Bootstrap Median (95% PI): 28.83 (12.69, 60.68) L·h^−1
  V2, Bootstrap Median (95% PI): 101.84 (65.42, 143.40) L
  V3, Bootstrap Median (95% PI): 286.48 (104.63, 385.40) L
  θAGE, Bootstrap Median (95% PI): −0.66 (−1.25 to −0.20)
  θCL, Bootstrap Median (95% PI): 3.98 (3.52, 4.45) L·h^−1
  θFFM, Bootstrap Median (95% PI): 1.41 (0.92, 1.90)
  σprop, Bootstrap Median (95% PI): 20 (16, 24) %
[1]; both, human, in vivo
  Tmax, median (min, max) estimated per patient: 1.7 h
[1]; both, human, in vivo, Tmax, median (min, max) estimated per patient
  Tmax: 1.75 h
[1]; both, human, plasma, oral
  clearance: 70 mL/min
[1]; covariate age
  CL variability explained by age: 21%
[1]; covariate analysis, RSE = 46%, effect excluded after sensitivity analysis (adherence confounding)
  increase in CL with coadministration of dabrafenib: 40%
[1]; covariate fat-free mass
  CL variability explained by FFM: 66%
[1]; final model
  IIVCL (inter-individual variability of CL, CV), Final Model Estimation (RSE %): 23 (14) %
  Q (typical intercompartmental clearance), Final Model Estimation (RSE %): 29.4 (30) L·h^−1
  V2 (typical volume of distribution, central), Final Model Estimation (RSE %): 108 L and 108 (16) L
  V3 (peripheral volume of distribution), Final Model Estimation (RSE %): 286 L and 286 (25) L
  θCL (typical clearance), Final Model Estimation (RSE %): 3.96 L·h^−1 and 3.96 (6) L·h^−1
  σprop (proportional residual error, CV), Final Model Estimation (RSE %): 20 (10) %
[1]; final model, AGEmedian = 63 years
  θAGE (effect of age on CL), Final Model Estimation (RSE %): −0.69 (32)
[1]; final model, FFMmedian = 46.35 kg
  θFFM (effect of fat-free mass on CL), Final Model Estimation (RSE %): 1.41 (17)
[2]
  ka (absorption rate constant): 0.913 h^−1 and 0.913 fixed h^−1
[3]; Figure 1
  Steady-state at day: 15 days
[3]
  excreted in the urine: 19%
  terminal half-life: around 127 h
  time at which maximum concentration is reached after administration: approximately 1.5 h
[3]; listed as Trametinib
  excreted in the urine: ≤ 19%
[3]; oral
  bioavailability: 72%
[4]
  Most frequent adverse events: Abdominal pain: 17%
  Most frequent adverse events: Arthralgia: 26%
  Most frequent adverse events: Asthenia: 15%
  Most frequent adverse events: Chills: 33%
  Most frequent adverse events: Constipation: 13%
  Most frequent adverse events: Coughing: 20%
  Most frequent adverse events: Cutaneous dryness: 13%
  Most frequent adverse events: Diarrhea: 32%
  Most frequent adverse events: Erythema: 10%
  Most frequent adverse events: Fatigue: 38%
  Most frequent adverse events: Flu infection: 11%
  Most frequent adverse events: Haemorrhages: 19%
  Most frequent adverse events: Headache: 33%
  Most frequent adverse events: Hypertension: 19%
  Most frequent adverse events: Increase in ALAT: 14%
  Most frequent adverse events: Increase in ASAT: 13%
  Most frequent adverse events: Loss of appetite: 14%
  Most frequent adverse events: Muscle cramps: 10%
  Most frequent adverse events: Myalgia: 15%
  Most frequent adverse events: Nausea: 38%
  Most frequent adverse events: Pain in the extremities: 12%
  Most frequent adverse events: Peripheral oedema: 16%
  Most frequent adverse events: Pruritus: 10%
  Most frequent adverse events: Pyrexia: 58%
  Most frequent adverse events: Rash: 24%
  Most frequent adverse events: Rhinopharyngitis: 11%
  Most frequent adverse events: Vomiting: 29%
  Most frequent adverse events: dizziness: 11%
[5]
  CL in a previous popPK model (first value named): 5.83 L/h
  CL in a previous popPK model (second value named): 4.91 L/h
[5]; ref Balakirouchenane et al. [38]
  peripheral volume of distribution: 417 L
[5]; ref Ouellet et al. [37]
  central volume of distribution: 214 L
  peripheral volume of distribution: 568 L
[6]
  substrate of cytochrome P (CYP) enzymes: not a substrate
[7]
  lipophilicity (in words): lipophilic

Source: paper PMC11201946 (Cancers, 2024)
